Data as given in patent US7511119B2, “PRAME peptide analogues” (MannKind Corporation, priority 2005, dated 2009).
Entries after “also recorded” stand apart in the source; their conditions may differ. Square brackets hold non-standard residues; d marks the D form. Ends that are not written are not given here. Nle = CCCC[C@H](N)C(=O)O; Nva = CCC[C@H](N)C(=O)O

Tests used:
[1] = biological target: A0201 restricted MHC Class 1 molecules (Homo sapiens, UniProt P04439, D140Y/D185E/D98H/E176V/E277Q/G131W/G231S/I119V/I121R/I166T/I218V/N151K/N90K/P208A/P217A/Q86G/Q94H/R138H/R169H); assay: iTopia off-rate assay (T1/2); type: binding; conditions: compared with the respective native peptide
Protocol: Avidin-coated microtiter plates containing class I monomer loaded with a so-called placeholder peptide were used to evaluate peptide binding, affinity and off-rate. […] Assay buffers, anti-MHC-FITC mAb and beta2-microglobulin and control peptides were also supplied with the kits.
The plates were then incubated on the allele-specific monomer plates at 37° C. The plates were measured at multiple time points (0, 0.5, 1, 1.5, 2, 4, 6 and 8 hrs) for relative fluorescence intensity. The time required for 50% of the peptide to dissociate from the MHC monomer is defined as the T1/2 value (hrs).
The binding and offrate (T1/2) was determined for six native epitopes and their analogs which were designed to enhance the immune response.

PRAME425-433 peptide = assay: IFN-gamma ELISA of splenocytes after pCTLR2 prime and peptide boost; type: in vivo, HHD transgenic mice; conditions: pCTLR2 prime, 2.5 μg peptide boost; versus native peptide boost; FIG. 29
HLA-A*0201 = HLA-A*0201 (Homo sapiens, UniProt P04439, D140Y/D185E/D98H/E176V/E277Q/G131W/G231S/I119V/I121R/I166T/I218V/L300P/L318F/N151K/N90K/P208A/P217A/Q86G/Q94H/R138H/R169H/T345S); assay: iTopia affinity assay (ED50); type: binding; conditions: compared with the respective native peptide
Description: Avidin-coated microtiter plates containing class I monomer loaded with a so-called placeholder peptide were used to evaluate peptide binding, affinity and off-rate. The monomer-coated plates were supplied as part of the iTopia Epitope Discovery System Kit (Beckman Coulter, Inc., San Diego, Calif., USA). Assay buffers, anti-MHC-FITC mAb and beta2-microglobulin and control peptides were also supplied with the kits.
Plates were read on the fluorometer. Sigmoidal dose response curves were generated using Prism software.

A2-624.28 control cells = assay: Ex vivo cytotoxicity against A2-negative control cells; type: in vivo; conditions: same effector cells as for 624.38
Protocol: (§1) This was followed by two peptide boosts (2.5 μg) at day 28 and 31, with the analog L426Nva L433Nle.

624.38 melanoma cells = assay: Ex vivo cytotoxicity against PRAME+ A2+ human tumor cells; type: in vivo; conditions: splenocytes restimulated ex vivo with native PRAME peptide
Protocol: as §1

[2] = system: PRAME425-433-specific T cells; assay: Tetramer/CD8 co-staining of PRAME425-433-specific T cells; type: in vivo, HHD transgenic mice; conditions: versus boost with negative control peptide; FIG. 31
[3] = system: T cell line specific for the native epitope PRAME425-433; assay: Cross-reactivity of PRAME425-433 analogs: IFN-gamma secretion from T cell line specific for native epitope; type: cell-based; conditions: analog peptide at approximately 0.3 μM; normalized to native PRAME425-433
Protocol: The analogs listed in FIGS. 26-28 were tested for various properties such as improved affinity and stability of binding, cross-reactivity with the native epitope, and immunogenicity as follows in Examples 40-48. […] The observed affinities of the analogs are reported as % binding (compared to the positive control) and ED50, and stability of binding as half time of dissociation. Cross reactivity with the native epitope was assessed by using the analog peptides to stimulate IFN-gamma secretion from a T cell line specific for the native epitope, essentially as described in Example 6. The data shown in FIGS. 26-28 were generated by stimulating with analog peptide at approximately 0.3 μM. […] In some cases, the reported values are the average of two determinations.

[4] = system: native peptide loaded splenocytes; assay: In vivo cytotoxicity against native PRAME peptide-loaded splenocytes (CFSE); design: species or system HHD transgenic mice; conditions: pCTLR2 prime, peptide boost; FIGS. 30-31
splenocytes = assay: Ex vivo cytokine production (IFN-gamma ELISA) after boost with PRAME analogs; type: in vivo, HHD transgenic mice; conditions: 10 μg/ml native peptide, 48 hours; FIG. 32

For “S{Nva}LQHLIG{Nle} (S[Nva]LQHLIG[Nle]) [Prame 425-433 (L426Nva, L433Nle)]”, the “stability of binding (half-time of dissociation), in words” value [1] was “Significant increase in the stability”, the “IFN-γ production in response to PRAME425-433 peptide (ELISA)” value (PRAME425-433 peptide) was “significant enhancement of IFN-γ production” and the “binding affinity (ED50) / binding characteristics, in words” value (HLA-A*0201) was “similar, somewhat improved binding characteristics”. For the same substance, the “cytotoxicity against A2-negative control cells” value (A2-624.28 control cells) was “no significant activity”, the “cytotoxicity against 624.38 human tumor cells” value (624.38 melanoma cells) was “significant cytotoxicity” and the “expansion of T cells specific against the native epitope (tetramer staining)” value [2] was “significantly higher”. The “IFN-γ production (cross-reactivity), in words” value [3] was “significant level of cross-recativity”, the “in vivo cytotoxicity against native epitope, in words” value [4] was “preserved induction of cytotoxicity; also recorded: capable of expanding the immunity against the native epitope” and the “ex vivo cytokine production (IFN-γ) by splenocytes” value (splenocytes) was “greater response”.
